Measured values as given in article PMC3282081, “A Modular Strategy to Prepare Multivalent Inhibitors of Prostate-Specific Membrane Antigen (PSMA)” (Oncotarget, 2011).
Values joined by “and” are separate entries in the source; they are usually repeats but may differ in a detail not shown here. Equal entries are not always repeated. Where two headings read alike, the source gives them in different places.

How the values were obtained:
PSMA [1] = molecular target: T1, PSMA (Homo sapiens, UniProt Q04609); assay: fluorescence-based PSMA inhibition assay (NAAG hydrolysis, Amplex Red); format: biochemical; conditions: for Ki: LNCaP cell lysates, 4 μM NAAG, Cheng-Prusoff conversion; for increase in binding affinity (Ki) compared to monovalent 1: relative to compound 1
T1 construct: endogenous in cells; host or cells: LNCaP cell lysate
T1 sequence (Q04609 whole entry): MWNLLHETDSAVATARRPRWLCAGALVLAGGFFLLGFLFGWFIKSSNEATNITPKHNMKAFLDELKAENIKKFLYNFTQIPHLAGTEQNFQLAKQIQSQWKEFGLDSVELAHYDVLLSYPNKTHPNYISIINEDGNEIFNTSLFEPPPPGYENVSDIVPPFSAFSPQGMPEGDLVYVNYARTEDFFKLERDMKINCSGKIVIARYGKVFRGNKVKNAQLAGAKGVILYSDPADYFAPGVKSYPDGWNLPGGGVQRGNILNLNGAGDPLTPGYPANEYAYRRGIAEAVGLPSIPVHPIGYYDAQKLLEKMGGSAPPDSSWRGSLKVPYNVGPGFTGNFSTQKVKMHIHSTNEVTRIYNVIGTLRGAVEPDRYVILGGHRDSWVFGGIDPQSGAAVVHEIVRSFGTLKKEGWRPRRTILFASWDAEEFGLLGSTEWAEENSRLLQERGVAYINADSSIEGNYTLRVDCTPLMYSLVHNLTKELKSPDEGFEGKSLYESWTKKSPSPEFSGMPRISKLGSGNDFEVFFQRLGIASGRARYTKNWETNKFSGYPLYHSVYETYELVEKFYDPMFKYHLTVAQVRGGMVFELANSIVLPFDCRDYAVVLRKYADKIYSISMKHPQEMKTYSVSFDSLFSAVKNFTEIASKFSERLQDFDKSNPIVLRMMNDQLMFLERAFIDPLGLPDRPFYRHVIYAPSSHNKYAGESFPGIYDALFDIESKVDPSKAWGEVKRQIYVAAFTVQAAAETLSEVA
Description: PSMA inhibition constant (Ki) values for 1 - 3 were determined using a fluorescence-based PSMA inhibition assay. […] Compound 6 was radiolabeled with ^99mTc and its biological properties were tested in vivo [34].
The PSMA inhibitory activities of 1 - 3 and [^113/115In]3 were determined using a fluorescence-based assay according to a previously reported procedure. Briefly, lysates of LNCaP cell extracts (25 μL) were incubated with the inhibitor (12.5 μL) in the presence of 4 μM NAAG (12.5 μL) for 120 min. The amount of glutamate released upon hydrolysis of NAAG was measured by incubating with a working solution (50 μL) of the Amplex Red Glutamic Acid Kit (Life Technologies, Grand Island, NY) for 60 min. Fluorescence was measured with a VICTOR3V multilabel plate reader (Perkin Elmer Inc., Waltham, MA) with excitation at 530 nm and emission at 560 nm. […] Assays were performed in triplicate. Enzyme inhibitory constants (Ki values) were generated using the Cheng-Prusoff conversion. Data analysis was performed using GraphPad Prism version 4.00 for Windows (GraphPad Software, San Diego, CA).

PSMA [2] = molecular target: T1, PSMA; parameters: method as in earlier work; conditions: separate previous experiment; cited from earlier work

Row | Ki (PSMA [1]) | increase in binding affinity (Ki) compared to monovalent 1 (PSMA [1]) | SMILES | Ki (PSMA [2])
1 | 0.08 nM | 11 fold and ~ 11 fold | O=C(O)CC[C@H](NC(=O)N[C@@H](CCCCNC(=O)CCCCCCC(=O)NC(CCCCn1cc(C(=O)NCCCCC(NC(=O)c2cn(CCCCC(NC(=O)CCCCCCC(=O)NCCCC[C@H](NC(=O)N[C@@H](CCC(=O)O)C(=O)O)C(=O)O)C(=O)O)nn2)C(=O)NC(CCCCNC(=O)CN2CCN(CC(=O)O)CCN(CC(=O)O)CCN(CC(=O)O)CC2)C(=O)O)nn1)C(=O)O)C(=O)O)C(=O)O (stereo partly drawn) [Compound 3] | –
2 | 0.1 nM | 5 fold and ~ 5 fold | NCCCCC(NC(=O)C(CCCCNC(=O)c1cn(CCCCC(NC(=O)CCCCCCC(=O)NCCCC[C@H](NC(=O)N[C@@H](CCC(=O)O)C(=O)O)C(=O)O)C(=O)O)nn1)NC(=O)c1cn(CCCCC(NC(=O)CCCCCCC(=O)NCCCC[C@H](NC(=O)N[C@@H](CCC(=O)O)C(=O)O)C(=O)O)C(=O)O)nn1)C(=O)O (stereo partly drawn) [Compound 2] | –
3 | – | – | NC(Cc1cn(CCCCC(NC(=O)CCCCCCC(=O)NCCCC[C@H](NC(=O)N[C@@H](CCC(=O)O)C(=O)O)C(=O)O)C(=O)O)nn1)C(=O)O (stereo partly drawn) [Compound 6] | 0.92 nM
4 | 0.9 nM and 0.91 nM | – | [N-]=[N+]=NCCCCC(NC(=O)CCCCCCC(=O)NCCCC[C@H](NC(=O)N[C@@H](CCC(=O)O)C(=O)O)C(=O)O)C(=O)O (stereo partly drawn) [Compound 1, (3S,7S)-26-Azido-5,13,20-trioxo-4,6,12,21-tetraazahexacosane-1,3,7,22-tetracarboxylic acid] | –
